Data reported in ChEMBL document CHEMBL3627672, “Structure-activity relationship study of syringolin A as a potential anticancer agent” (Bioorg Med Chem Lett, 2015).

Assays:
[1] = tested on: A-431; test: Antiproliferative activity against human A431 cells after 72 hrs by oxyluciferin luminescence assay; settings: A-431, 72 h
[2] = tested on: HCT-116; test: Antiproliferative activity against human HCT116 cells after 72 hrs by oxyluciferin luminescence assay; settings: HCT-116, 72 h
[3] = tested on: RKO; test: Antiproliferative activity against human RKO cells after 72 hrs by oxyluciferin luminescence assay
[4] = Antiproliferative activity against human TOV21G cells after 72 hrs by oxyluciferin luminescence assay
[5] = tested on: CCRF-CEM; test: Antiproliferative activity against human CCRF-CEM cells after 72 hrs by oxyluciferin luminescence assay
[6] = Antiproliferative activity against human RPMI8266 cells after 72 hrs by oxyluciferin luminescence assay; settings: RPMI8266, 72 h

| Structure (SMILES) | IC50 [1] | IC50 [2] | IC50 [3] | IC50 [4] | IC50 [5] | IC50 [6] |
| --- | --- | --- | --- | --- | --- | --- |
| CCCCCCCCCC(=O)N[C@@H](Cc1cccc2ccccc12)C(=O)N[C@H]1/C=C/CCNC(=O)/C=C/[C@H](C(C)C)NC1=O | 29.3 nM | 31 nM | 31.3 nM | 13.2 nM | 1.5 nM | 7.4 nM |
| CCCCCCCCCC(=O)N[C@@H](Cc1ccc2ccccc2c1)C(=O)N[C@H]1/C=C/CCNC(=O)/C=C/[C@H](C(C)C)NC1=O | 17.8 nM | 18.5 nM | 15.2 nM | 14.1 nM | 5 nM | 10.9 nM |
| CCCCCCCCCC(=O)N[C@@H](Cc1ccco1)C(=O)N[C@H]1/C=C/CCNC(=O)/C=C/[C@H](C(C)C)NC1=O | 29.7 nM | 26.7 nM | 20.1 nM | 22.3 nM | 24.9 nM | 24.1 nM |
| CCCCCCCCCC(=O)N[C@@H](Cc1cccs1)C(=O)N[C@H]1/C=C/CCNC(=O)/C=C/[C@H](C(C)C)NC1=O | 18.7 nM | 15.5 nM | 20.8 nM | 16.7 nM | 11 nM | 14.4 nM |
| CCCCCCCCCC(=O)N[C@@H](Cc1ccsc1)C(=O)N[C@H]1/C=C/CCNC(=O)/C=C/[C@H](C(C)C)NC1=O | 15 nM | 9.1 nM | 11.3 nM | 10.2 nM | 4.2 nM | 5.7 nM |
| CCCCCCCCCC(=O)N[C@@H](Cc1c[nH]c2ccccc12)C(=O)N[C@H]1/C=C/CCNC(=O)/C=C/[C@H](C(C)C)NC1=O | 45.5 nM | 44.5 nM | 39.4 nM | 13.5 nM | 16.8 nM | 27.5 nM |
| CCCCCCCCCC(=O)N(C)[C@@H](Cc1ccccc1)C(=O)N[C@H]1/C=C/CCNC(=O)/C=C/[C@H](C(C)C)NC1=O | > 1000 nM | > 1000 nM | > 1000 nM | > 1000 nM | 197 nM | > 1000 nM |
| CCCCC(=O)N[C@@H](Cc1ccccc1)C(=O)N[C@H]1/C=C/CCNC(=O)/C=C/[C@H](C(C)C)NC1=O | 413 nM | 402 nM | 415 nM | 427 nM | 61.1 nM | 138 nM |
| CCCCCC(=O)N[C@@H](Cc1ccccc1)C(=O)N[C@H]1/C=C/CCNC(=O)/C=C/[C@H](C(C)C)NC1=O | 128 nM | 61.4 nM | 52.6 nM | 131 nM | 28.6 nM | 42.6 nM |
| CCCCCCC(=O)N[C@@H](Cc1ccccc1)C(=O)N[C@H]1/C=C/CCNC(=O)/C=C/[C@H](C(C)C)NC1=O | 57.7 nM | 24.5 nM | 33.4 nM | 60.7 nM | 11.6 nM | 18.9 nM |
| CCCCCCCC(=O)N[C@@H](Cc1ccccc1)C(=O)N[C@H]1/C=C/CCNC(=O)/C=C/[C@H](C(C)C)NC1=O | 20.2 nM | 14 nM | 14.8 nM | 19 nM | 6.6 nM | 9.9 nM |
| CCCCCCCCC(=O)N[C@@H](Cc1ccccc1)C(=O)N[C@H]1/C=C/CCNC(=O)/C=C/[C@H](C(C)C)NC1=O | 18.2 nM | 7.1 nM | 8.6 nM | 10.4 nM | 1.8 nM | 8.2 nM |
| CCCCCCCCCCC(=O)N[C@@H](Cc1ccccc1)C(=O)N[C@H]1/C=C/CCNC(=O)/C=C/[C@H](C(C)C)NC1=O | 38.2 nM | 36 nM | 19.2 nM | 19.3 nM | 7.4 nM | 14.4 nM |
| CCCCCCCCCCCC(=O)N[C@@H](Cc1ccccc1)C(=O)N[C@H]1/C=C/CCNC(=O)/C=C/[C@H](C(C)C)NC1=O | 44.8 nM | 37.4 nM | 33.6 nM | 27.5 nM | 14.8 nM | 29.6 nM |
| CCCCCCCCCCCCC(=O)N[C@@H](Cc1ccccc1)C(=O)N[C@H]1/C=C/CCNC(=O)/C=C/[C@H](C(C)C)NC1=O | 82.2 nM | 73.9 nM | 49.8 nM | 48.3 nM | 36.9 nM | 88.3 nM |
| CCCCCCCCCCCCCC(=O)N[C@@H](Cc1ccccc1)C(=O)N[C@H]1/C=C/CCNC(=O)/C=C/[C@H](C(C)C)NC1=O | 430 nM | 413 nM | 470 nM | 425 nM | 409 nM | 735 nM |
| CCCCCCCCCC(=O)N[C@H](C(=O)N[C@H]1/C=C/CCNC(=O)/C=C/[C@H](C(C)C)NC1=O)c1ccccc1 | 27.8 nM | 45.1 nM | 20.8 nM | 9.5 nM | 11 nM | 26.9 nM |
| CCCCCCCCCC(=O)N[C@@H](CCc1ccccc1)C(=O)N[C@H]1/C=C/CCNC(=O)/C=C/[C@H](C(C)C)NC1=O | 16.8 nM | 28.4 nM | 27 nM | 9.6 nM | 11.6 nM | 14.9 nM |
